Measurements taken from PubChem BioAssay AID2060505 (Molecular Pharmacology Branch, DTP, NCI, 2025).

Tested on: 633275-114-R-J1-PDC complex spheroids, viability
Test: Anticancer human tumor 633275-114-R-J1-PDC patient-derived endometrial adenocarcinoma cell line growth inhibition [GQUAD]
Conditions: for IC50: curve of first compound; for viability, T/C: stronger effect = lower value
From the text: DNA G-quadruplex Stabilizer Agents in Combinations in Complex Spheroids
A high-throughput screen of multi-cell type tumor spheroids was designed to identify active combinations of DNA G-quadruplex stabilizer agents and targeted small molecules. Complex spheroids include a stromal component modeled by human endothelial cells (HUVEC) and fibroblasts modeled by human mesenchymal stem cells (MSCs). The concentration ranges selected for each drug and investigational agent were based upon clinically achievable concentrations if the clinical Cmax of the agent was known.
Compounds. The drugs and investigational agents: pidnarulex (CX-5461; NSC782164), APTO-253 (NSC789042), BRACO-19 (NSC847499), peposertib (NSC802822), ceralasertib (NSC780249), elimusertib (NSC800525), camonsertib (NSC841442), AZD-1390 (NSC803789), olaparib (NSC753686), talazoparib (NSC767125), ART-558 (NSC835418), sotorasib (NSC818433), MRTX-1133 (NSC836407), SN-38 (NSC673596), topotecan (NSC609699), etoposide (NSC141540), doxorubicin (NSC123127), gemcitabine (NSC613327), 5-fluorouracil (NSC19893), paclitaxel (NSC125973), vemurafenib (NSC761431), panobinostat (NSC761190), R-306465 (JNJ-16241199; NSC773264), adavosertib (NSC754352), TP-3654 (NSC805149), carboplatin (NSC241240), KSQ-4279 (NSC840948), and staurosporine (NSC755774) were obtained from the National Cancer Institute (NCI) Developmental Therapeutics Program Chemical Repository (34). The FDA-approved anticancer drug set is available from the NCI Developmental Therapeutics Program. […] The stock solutions were prepared in dimethyl sulfoxide (DMSO, Sigma-Aldrich, St. Louis, MO, cat. D2650) at 800-fold the tested concentration and stored at -70 degrees C prior to their use. All drugs and investigational agents were tested over a range starting from a high concentration at or near the clinical Cmax and decreasing in half-log increments. If the clinical Cmax for an agent had not been determined, the highest concentration tested was 10 microM.
2.3 Cell Culture. All cells were maintained in an incubator at 37 degrees C and 5% CO2 with 95% humidity. The PDC lines were cultured according to standard operating procedures established by the NCI PDMR. All PDCs were thawed and cultured in Matrigel-coated flasks prepared with a working solution of 1X Ham's F-12 nutrient mix, without supplementation (Invitrogen, cat. 11765054), 100 U/mL penicillin-streptomycin (Invitrogen, cat. 15140122), and 2.5% Matrigel (Corning Inc., cat. 354248) for the first three passages. The 857933-349-R-J2-PDC line was cultured in 6C/Colon 1B media, which includes advanced DMEM/F-12 (Thermo Fisher Scientific, cat. 12634028), 10 mM HEPES (Thermo Fisher Scientific, cat. 15630080), 1X GlutaMAX supplement (Thermo Fisher Scientific, cat. 35050061), 0.1 mg/mL primocin (InvivoGen, cat. ant-pm-2), 10% defined fetal bovine serum, heat inactivated (HyClone Laboratories Inc., cat. SH30070.03HI), 50% L-WRN conditioned media (ATCC, cat. CRL-3276), 1.25 mM N-Acetyl-L-cysteine (Sigma-Aldrich, cat. A9165), 10 mM nicotinamide (Sigma-Aldrich, cat. N0636), 1X B-27 supplement (Thermo Fisher Scientific, cat. 17504044), 1X N-2 supplement (Thermo Fisher Scientific, cat. 17502048), 10 microM Y-27632 dihydrochloride (Tocris Bioscience, cat. 1254), and 50 ng/mL human EGF recombinant protein (Thermo Fisher Scientific, cat. PHG0311). The 485176-168-R4-J1-PDC line was cultured in Panc media, which includes all 6C/Colon 1B media components plus 100 ng/mL human FGF-10 (Thermo Fisher Scientific, cat. 100-26), 500 nM SB-431542 (Selleckchem, cat. S1067), and gastrin (Tocris, cat. 3006).
[…]

[1] = second compound 0.0316 µM, first compound 0.0316 µM
[2] = second compound 0.0316 µM, first compound 0.1 µM
[3] = second compound 0.0316 µM, first compound 0.316 µM
[4] = second compound 0.0316 µM, first compound 1 µM
[5] = second compound 0.0316 µM, first compound 3.16 µM
[6] = second compound 0.0316 µM, first compound 10 µM
[7] = second compound 0.1 µM, first compound 0.0316 µM
[8] = second compound 0.1 µM, first compound 0.1 µM
[9] = second compound 0.1 µM, first compound 0.316 µM
[10] = second compound 0.1 µM, first compound 1 µM
[11] = second compound 0.1 µM, first compound 3.16 µM
[12] = second compound 0.1 µM, first compound 10 µM
[13] = second compound 0.316 µM, first compound 0.0316 µM
[14] = second compound 0.316 µM, first compound 0.1 µM
[15] = second compound 0.316 µM, first compound 0.316 µM
[16] = second compound 0.316 µM, first compound 1 µM
[17] = second compound 0.316 µM, first compound 3.16 µM
[18] = second compound 0.316 µM, first compound 10 µM
[19] = second compound 1 µM, first compound 0.0316 µM
[20] = second compound 1 µM, first compound 0.1 µM
[21] = second compound 1 µM, first compound 0.316 µM
[22] = second compound 1 µM, first compound 1 µM
[23] = second compound 1 µM, first compound 3.16 µM
[24] = second compound 1 µM, first compound 10 µM
[25] = second compound 3.16 µM, first compound 0.0316 µM
[26] = second compound 3.16 µM, first compound 0.1 µM
[27] = second compound 3.16 µM, first compound 0.316 µM
[28] = second compound 3.16 µM, first compound 1 µM
[29] = second compound 3.16 µM, first compound 3.16 µM
[30] = second compound 3.16 µM, first compound 10 µM
[31] = second compound 10 µM, first compound 0.0316 µM
[32] = second compound 10 µM, first compound 0.1 µM
[33] = second compound 10 µM, first compound 0.316 µM
[34] = second compound 10 µM, first compound 1 µM
[35] = second compound 10 µM, first compound 3.16 µM
[36] = second compound 10 µM, first compound 10 µM
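Also: spheroids exposed to the agents for seven days.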
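For viability, T/C in this document: percent of DMSO vehicle control viability which is 100%.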

`CC(C)n1c(=O)n(C)c2cnc3cc(F)c(-c4ccc(OCCCN5CCCCC5)nc4)cc3c21` + CN(C)c1ccc(Nc2c3ccc(NC(=O)CCN4CCCC4)cc3nc3cc(NC(=O)CCN4CCCC4)ccc23)cc1 was tested, and the IC50 (second compound 0.0316 µM) was greater than 10000 nM, the IC50 (second compound 0.1 µM) was greater than 10000 nM and the IC50 (second compound 0.316 µM) was greater than 10000 nM. The IC50 (second compound 1 µM) was greater than 10000 nM, the IC50 (second compound 3.16 µM) was 2550 nM and the IC50 (second compound 10 µM) was less than 31.6 nM. The viability, T/C [1] was 115%, the viability, T/C [2] was 109% and the viability, T/C [3] was 102%. It also gave a viability, T/C [4] of 109%, a viability, T/C [5] of 102% and a viability, T/C [6] of 67.9%. For the same compound, the viability, T/C [7] was 102%, the viability, T/C [8] was 115% and the viability, T/C [9] was 98.2%. The viability, T/C [10] was 97.4%, the viability, T/C [11] was 97.4% and the viability, T/C [12] was 65.1%. It also gave a viability, T/C [13] of 102%, a viability, T/C [14] of 104% and a viability, T/C [15] of 98.7%. It also gave a viability, T/C [16] of 101%, a viability, T/C [17] of 86.1% and a viability, T/C [18] of 70.7%. The viability, T/C [19] was 99.8%, the viability, T/C [20] was 98.3% and the viability, T/C [21] was 113%. The viability, T/C [22] was 78.4%, the viability, T/C [23] was 85.1% and the viability, T/C [24] was 63.5%. It also gave a viability, T/C [25] of 84.4%, a viability, T/C [26] of 81.2% and a viability, T/C [27] of 60.4%. For the same compound, the viability, T/C [28] was 64.5%, the viability, T/C [29] was 50.3% and the viability, T/C [30] was 32.3%. It also gave a viability, T/C [31] of 29%, a viability, T/C [32] of 28.8% and a viability, T/C [33] of 22.1%. It also gave a viability, T/C [34] of 21.5%, a viability, T/C [35] of 17.9% and a viability, T/C [36] of 9.88%.
`CC1COCCN1c1cc(-c2ccnn2C)c2ccnc(-c3ccn[nH]3)c2n1` (centres undefined) + CN(C)c1ccc(Nc2c3ccc(NC(=O)CCN4CCCC4)cc3nc3cc(NC(=O)CCN4CCCC4)ccc23)cc1 showed an IC50 (second compound 0.0316 µM) of 136 nM, an IC50 (second compound 0.1 µM) of 163 nM and an IC50 (second compound 0.316 µM) of 175 nM. For the same compound, the IC50 (second compound 1 µM) was 144 nM, the IC50 (second compound 3.16 µM) was 90.5 nM and the IC50 (second compound 10 µM) was less than 31.6 nM. It also gave a viability, T/C [1] of 77%, a viability, T/C [2] of 54.4% and a viability, T/C [3] of 37.3%. For the same compound, the viability, T/C [4] was 26.1%, the viability, T/C [5] was 18% and the viability, T/C [6] was 18.4%. For the same compound, the viability, T/C [7] was 92.4%, the viability, T/C [8] was 59.6% and the viability, T/C [9] was 37.1%. For the same compound, the viability, T/C [10] was 24.8%, the viability, T/C [11] was 18.9% and the viability, T/C [12] was 18.9%. It also gave a viability, T/C [13] of 82.2%, a viability, T/C [14] of 61.1% and a viability, T/C [15] of 37.7%. It also gave a viability, T/C [16] of 25.9%, a viability, T/C [17] of 19.4% and a viability, T/C [18] of 14.9%. The viability, T/C [19] was 74.1%, the viability, T/C [20] was 55.2% and the viability, T/C [21] was 38.3%. For the same compound, the viability, T/C [22] was 23.5%, the viability, T/C [23] was 18.1% and the viability, T/C [24] was 16.2%. The viability, T/C [25] was 60.3%, the viability, T/C [26] was 49.6% and the viability, T/C [27] was 33.4%. It also gave a viability, T/C [28] of 22.2%, a viability, T/C [29] of 15.8% and a viability, T/C [30] of 11.4%. The viability, T/C [31] was 30.3%, the viability, T/C [32] was 23.5% and the viability, T/C [33] was 15.9%. It also gave a viability, T/C [34] of 12.5%, a viability, T/C [35] of 10.4% and a viability, T/C [36] of 9.22%.
